Experimental data from patent US20250288557A1, “FORMULATION AND METHOD FOR TREATMENT OF INFECTIONS” (priority 2022, published 2025).
Like-named read-outs stand apart in the source and are kept apart here.

Test system: Piglets
Settings: for Mortality (%): (number of dead pigs/number of pigs enrolled)x100; for Clinical observations (%): percentage of pigs expressing clinical signs suggestive of product(s) side-effects: po
Experimental: Safety Study: Studies for safety were conducted. The trials assessed the active ingredients individually and according to various combinations.
Example Safety Study: The following provides the procedure(s) and data collected from the exemplary safety study.
Six different sets of pigs were tested with six different formulations: • 1. […] Statin or Atorvastatin (1.6 mg/dose) • 3. Indomethacin (3.64 mg/dose) • 4. Doxycycline (6 mg/dose) • 5. Cimetidine (18 mg/dose) • 6. Positive control (compounded formulation of Atorvastatin, Indomethacin, […], Doxycycline, and Cimetidine)
Methods: A sow farm negative for Porcine Reproductive and Respiratory Syndrome virus (PRRSv) and Mycoplasma hyopneumoniae and experiencing little to no piglet enteric health challenges was enrolled for the study. Piglets (12-14 days of age) orally received one of the six formulations identified above. When receiving a formulation, 1 mL of assigned treatment was obtained and provided to the Piglets.
At d0 and d1, pen-level fecal consistency was studied. At d1, piglet mortality was recorded.
Fecal scores: Average fecal score (pen-level). Fecal scours 0, 1, 2, and 3 corresponded to normal, pasty, semi-liquid, and liquid feces, respectively, with scores of ≥2 corresponding to diarrhea.
Mortality: %=(number of dead pigs/number of pigs enrolled)×100.

Compound	Mortality (%) (d 0)	Mortality (%) (d 1)	Fecal scores: average fecal score (pen-level) (pig, in vivo)	Palatability (%): percentage of pigs expressing clinical signs suggestive of poor palatability (pig, in vivo)	Fecal scores: average fecal score (pen-level) (pig, in vivo, 1 day)	Clinical observations (%): percentage of pigs expressing clinical signs suggestive of product(s) side-effects (pig, in vivo, 0 day)	Clinical observations (%): percentage of pigs expressing clinical signs suggestive of product(s) side-effects (pig, in vivo, 24 h)	Fecal score of a single litter (pig, in vivo)
CN/C(=N/CCSCc1nc[nH]c1C)NC#N [Cimetidine]	0.0%	0.0%	0.0	0.0%	0.0	0.0%	0.0%	–
C[C@H]1c2cccc(O)c2C(=O)C2=C(O)[C@]3(O)C(=O)C(C(N)=O)=C(O)[C@@H](N(C)C)[C@@H]3[C@@H](O)[C@@H]21 [Doxycycline]	0.0%	0.0%	0.0	0.0%	0.0	0.0%	0.0%	–
COc1ccc2c(c1)c(CC(=O)O)c(C)n2C(=O)c1ccc(Cl)cc1 [Indomethacin]	0.0%	0.0%	0.0	0.0%	0.0	0.0%	0.0%	–
CC(C)c1c(C(=O)Nc2ccccc2)c(-c2ccccc2)c(-c2ccc(F)cc2)n1CC[C@@H](O)C[C@@H](O)CC(=O)O [Atorvastatin]	0.0%	0.0%	0.5	0.0%	0.0	0.0%	0.0%	1
